Measurements taken from ChEMBL document CHEMBL4359916, “Design, synthesis and biological evaluation of 1-benzyl-5-oxopyrrolidine-2-carboximidamide derivatives as novel neuroprotective agents” (Eur J Med Chem, 2019).
Calls of active or inactive are those of the source. No cut-off for these calls is given here.

Tests used:
[1] = system: SH-SY5Y; test: Neuroprotective activity against NMDA-induced cell damage in human SH-SY5Y cells assessed as cell viability at 0.5 uM preincubated for 8 hrs followed by NMDA addition and further incubated for 30 mins and measured after 12 hrs by MTT assay relative to control; format: functional; conditions: read-out: Activity
[2] = system: SH-SY5Y; test: Neuroprotective activity against NMDA-induced cell damage in human SH-SY5Y cells assessed as cell viability at 5 uM preincubated for 8 hrs followed by NMDA addition and further incubated for 30 mins and measured after 12 hrs by MTT assay relative to control; format: functional; conditions: read-out: Activity
[3] = system: SH-SY5Y; test: Neuroprotective activity against NMDA-induced cell damage in human SH-SY5Y cells assessed as cell viability at 0.05 uM preincubated for 8 hrs followed by NMDA addition and further incubated for 30 mins and measured after 12 hrs by MTT assay relative to control; format: functional; conditions: read-out: Activity
[4] = Metabolic stability in human liver microsomes assessed as parent compound remaining at 10 uM measured after 60 mins; format: ADME, Microsome; conditions: read-out: Stability
[5] = system: Mus musculus; test: Memory enhancement effect in C57BL/6 mouse model of bilateral common carotid artery occlusion-induced brain ischemia assessed as increase in discrimination index at 50 mg/kg/day, po via gavage 24 hrs post surgery measured on day 9 to 12 after 24 hrs by novel object recognition test; format: functional, organism-based
[6] = system: Mus musculus; test: Improvement in spatial memory impairment in C57BL/6 mouse model of bilateral common carotid artery occlusion-induced brain ischemia at 50 mg/kg/day, po via gavage at 24 hrs post surgery after day 17; format: functional, organism-based
[7] = biological target: T1, Glutamate [NMDA] receptor (Homo sapiens) (UniProt Q05586+Q12879+Q13224+O15399+O60391+Q14957+Q8TCU5); test: Antagonist activity at NMDA receptor in human SH-SY5Y cells assessed as reduction in NMDA-stimulated calcium ion influx at 5 uM measured after 3 hrs by Fluo-3 AM indicator based laser scanning confocal microscopy analysis; format: cell-based
[8] = system: Mus musculus; test: Improvement in visual recognition effect in C57BL/6 mouse model of bilateral common carotid artery occlusion-induced brain ischemia at 50 mg/kg/day, po via gavage at 24 hrs post surgery measured on day 9 to 12 by novel object recognition test; format: functional, organism-based
[9] = system: Mus musculus; test: Cognitive enhancing effect in C57BL/6 mouse model of bilateral common carotid artery occlusion-induced brain ischemia assessed as effect on total arm entries at 10 to 50 mg/kg/day, po via gavage at 24 hrs post surgery on day 8 after […] of drug administration by Y-maze test; format: functional, organism-based
[10] = system: Mus musculus; test: (§1) Improvement in spatial memory impairment in C57BL/6 mouse model of bilateral common carotid artery occlusion-induced brain ischemia assessed as increase in number of virtual platform crossing at 10 to 50 mg/kg/day, po via gavage at 24 hrs post surgery and 1 hr prior to the test measured on day 14 to 17 by Morris water maze test; format: functional, organism-based
[11] = Half-life in human liver microsomes at 10 uM preincubated for 10 mins followed by addition of NADPH and measured for 5 to 60 mins; format: ADME, Microsome
[12] = system: Mus musculus; test: as §1, with “swimming distance” for “number of virtual platform crossing”; format: functional, organism-based
[13] = system: Mus musculus; test: Cognitive enhancing effect in C57BL/6 mouse model of bilateral common carotid artery occlusion-induced brain ischemia assessed as increase in spontaneous alternation behavior at 10 to 50 mg/kg/day, po via gavage at 24 hrs post surgery on day 8 after 1 hr drug administration by Y-maze test; format: functional, organism-based
[14] = Clearance in human liver microsomes at 10 uM preincubated for 10 mins followed by addition of NADPH and measured for 5 to 60 mins; format: ADME, Microsome
[15] = system: Mus musculus; test: as §1, with “time spent in correct quadrant” for “number of virtual platform crossing”; format: functional, organism-based
[16] = system: Mus musculus; test: as §1, with “decrease” for “increase”, “escape latency” for “number of virtual platform crossing”; format: functional, organism-based
[17] = system: Mus musculus; test: Improvement in spatial memory impairment in C57BL/6 mouse model of bilateral common carotid artery occlusion-induced brain ischemia at 50 mg/kg/day, po via gavage at 24 hrs post surgery measured on day 9 to 12 by novel object recognition test; format: functional, organism-based
[18] = biological target: T1, Glutamate [NMDA] receptor (Homo sapiens); test: Inhibition of NMDA receptor in NMDA-induced human SH-SY5Y cells assessed as increase in phosphorylated ERK1/2 level preincubated for 6 hrs followed by NMDA addition and further incubated for 30 mind and measured after 4 hrs by Western blot analysis; format: cell-based
[19] = system: Mus musculus; test: Memory enhancement effect in C57BL/6 mouse model of bilateral common carotid artery occlusion-induced brain ischemia assessed as increase in preferential index at 50 mg/kg/day, po via gavage after 24 hrs post surgery measured on day 9 to 12 after 1 hr by novel object recognition test; format: functional, organism-based
[20] = system: SH-SY5Y; test: Neuroprotective activity in human SH-SY5Y cells assessed as reduction in NMDA-induced NR2B upregulation preincubated for 6 hrs followed by NMDA addition and further incubated for 30 mind and measured after 4 hrs by Western blot analysis; format: functional, cell-based
[21] = system: Mus musculus; test: Cognitive enhancing effect in C57BL/6 mouse model of bilateral common carotid artery occlusion-induced brain ischemia at 50 mg/kg/day, po via gavage at 24 hrs post surgery after day 17; format: functional, organism-based

SMILES | viability at 0.5 µM [1] [%] | viability at 5 µM [2] [%] | viability at 0.05 µM [3] [%] | further results
COc1ccc(CNC(=N)[C@@H]2CCC(=O)N2Cc2ccccc2[N+](=O)[O-])cc1 | 21.1 | 25.4 | 18.1 | –
N=C(NCc1ccc(O)cc1)[C@@H]1CCC(=O)N1Cc1ccc([N+](=O)[O-])cc1 | 31.3 | 34.5 | 25.9 | –
N=C(NCc1ccccc1)[C@@H]1CCC(=O)N1Cc1ccccc1 | 27.9 | 20.7 | 16.6 | –
N=C(NCc1ccccc1)[C@@H]1CCC(=O)N1Cc1ccccc1[N+](=O)[O-] | 28.8 | 25.3 | 10.1 | –
COc1ccc(CNC(=N)[C@@H]2CCC(=O)N2Cc2ccccc2)cc1 | 23.6 | 19.5 | 7.1 | –
COc1ccc(CN2C(=O)CC[C@H]2C(=N)NCc2ccccc2)cc1 | 21 | 17.9 | 12.3 | –
COc1ccc(CNC(=N)[C@@H]2CCC(=O)N2Cc2ccc(C)cc2)cc1 | 21.9 | 29.5 | 19.5 | –
N=C(NCc1ccccc1)[C@@H]1CCC(=O)N1Cc1ccc(F)cc1 | 23.3 | 31.4 | 13.3 | –
N=C(NCc1ccc(O)cc1)[C@@H]1CCC(=O)N1Cc1ccccc1[N+](=O)[O-] | 26.9 | 30.4 | 20 | –
Cc1ccc(CN2C(=O)CC[C@H]2C(=N)NCc2ccc(O)cc2)cc1 | 21.9 | 23.8 | 20.5 | –
N=C(NCc1ccccc1)[C@@H]1CCC(=O)N1Cc1ccc([N+](=O)[O-])cc1 | 24 | 25.6 | 13.7 | –
COc1ccc(CNC(=N)[C@@H]2CCC(=O)N2Cc2ccc([N+](=O)[O-])cc2)cc1 | 25.4 | 35.2 | 14.3 | –
N=C(NCc1ccc(O)cc1)[C@@H]1CCC(=O)N1Cc1ccccc1 | 35.4 | 37.6 | 19.8 | –
COc1ccc(CNC(=N)[C@@H]2CCC(=O)N2Cc2ccc(F)cc2)cc1 | 36.7 | 38.1 | 15.8 | –
Cc1ccc(CN2C(=O)CC[C@H]2C(=N)NCc2ccccc2)cc1 | 23.5 | 24.8 | 17.1 | –
COc1ccc(CN2C(=O)CC[C@H]2C(=N)NCc2ccc(O)cc2)cc1 | 20.5 | 26.6 | 16 | –
Cl.N=C(NCc1ccc(O)cc1)[C@@H]1CCC(=O)N1Cc1ccc(F)cc1 | 42 | 48.6 | 35.2 | remaining at 1 h, 10 µM [4]: 92.7%; Activity [5]: Active; Activity [6]: Active; inhibition [7]: Active; Activity [8]: Active; Activity [9]: inactive; Activity [10]: Active; half-life at 10 µM [11]: > 2.42 h; Activity [12]: Active; Activity [13]: Active; CLint [14]: < 9.6 µL/min/mg; Activity [15]: Active; Activity [16]: Active; Activity [17]: Active; inhibition [18]: Active; Activity [19]: Active; Activity [20]: Active; Activity [21]: Active
COc1ccc(CNC(=N)[C@@H]2CCC(=O)N2Cc2ccc(OC)cc2)cc1 | 24.8 | 33.6 | 24.2 | –
C[C@@H]([C@@H](O)c1ccc(O)cc1)N1CCC(Cc2ccccc2)CC1 [(S)-IFENPRODIL] | 40.4 | 41 | 29.4 | inhibition [7]: Active
